Experimental data taken from patent US6706739B2, “Imidazolidinone compounds” (National Health Research Institute, priority 2001, dated 2004).
Like-named read-outs stand apart in the source and are kept apart here.

Tests used:
Assay type in all cases: cell-based
coxsackievirus A24 = assay: Plaque reduction assay, coxsackievirus A24
enterovirus 71 = assay: Plaque reduction assay, enterovirus 71
coxsackievirus A9 = assay: Plaque reduction assay, coxsackievirus A9
[1] = plaque reduction assay, vero cells, 35° C., 96 hours

O=C1N(CCCCCCOc2ccc(Br)cc2)CCN1c1ccncc1 [Compound 17, 1-[6-(4-bromophenoxy)hexyl]-3-(4-pyridyl)-2-imidazolidinone]
showed antiviral activity: antiviral activity against enteroviruses, in particular coxsackievirus A24 (coxsackievirus A24; [1]) | antiviral activity against enteroviruses, in particular enterovirus 71 (enterovirus 71; [1]) | antiviral activity against enteroviruses, in particular coxsackievirus A9 (coxsackievirus A9; [1])

O=C1N(CCCCCOc2ccc(Br)cc2)CCN1c1ccncc1 [Compound 52, 1-[5-(4-bromophenoxy)pentyl]-3-(4-pyridyl)-2-imidazolidinone]
showed antiviral activity: antiviral activity against enteroviruses, in particular coxsackievirus A24 (coxsackievirus A24; [1]) | antiviral activity against enteroviruses, in particular enterovirus 71 (enterovirus 71; [1]) | antiviral activity against enteroviruses, in particular coxsackievirus A9 (coxsackievirus A9; [1])

O=C1N(CCCCCCCOc2ccc(Br)cc2)CCN1c1ccncc1 [Compound 50, 1-[7-(4-bromophenoxy)heptyl]-3-(4-pyridyl)-2-imidazolidinone]
showed antiviral activity: antiviral activity against enteroviruses, in particular coxsackievirus A24 (coxsackievirus A24; [1]) | antiviral activity against enteroviruses, in particular enterovirus 71 (enterovirus 71; [1]) | antiviral activity against enteroviruses, in particular coxsackievirus A9 (coxsackievirus A9; [1])

O=C1N(CCCCCCOc2ccc(I)cc2)CCN1c1ccncc1 [Compound 61, 1-[6-(4-iodophenoxy)hexyl]-3-(4-pyridyl)-2-imidazolidinone]
showed antiviral activity: antiviral activity against enteroviruses, in particular coxsackievirus A24 (coxsackievirus A24; [1]) | antiviral activity against enteroviruses, in particular enterovirus 71 (enterovirus 71; [1]) | antiviral activity against enteroviruses, in particular coxsackievirus A9 (coxsackievirus A9; [1])

O=C1N(CCCCCCCOc2ccc(Cl)cc2)CCN1c1ccncc1 [Compound 2, 1-[7-(4-chlorophenoxy)heptyl]-3-(4-pyridyl)-2-imidazolidinone]
showed antiviral activity: antiviral activity against enteroviruses, in particular coxsackievirus A24 (coxsackievirus A24; [1]) | antiviral activity against enteroviruses, in particular enterovirus 71 (enterovirus 71; [1]) | antiviral activity against enteroviruses, in particular coxsackievirus A9 (coxsackievirus A9; [1])

O=C1N(CCCCCOc2ccc(-c3ccc(Cl)cc3)cc2)CCN1c1ccncc1 [Compound 73, 1-[6-(4-(4′-chloro)biphenyl-4-yloxy)pentyl]-3-pyridin-4-yl-imidazolidin-2-one]
showed antiviral activity: antiviral activity against enteroviruses, in particular coxsackievirus A24 (coxsackievirus A24) | antiviral activity against enteroviruses, in particular enterovirus 71 (enterovirus 71) | antiviral activity against enteroviruses, in particular coxsackievirus A9 (coxsackievirus A9)

O=C1N(CCCCCCOc2ccc(Br)cc2)CCN1c1cccnc1 [Compound 33, 1-[6-(4-bromophenoxy)hexyl]-3-(3-pyridyl)-2-imidazolidinone]
showed antiviral activity: antiviral activity against enteroviruses, in particular coxsackievirus A24 (coxsackievirus A24; [1]) | antiviral activity against enteroviruses, in particular enterovirus 71 (enterovirus 71; [1]) | antiviral activity against enteroviruses, in particular coxsackievirus A9 (coxsackievirus A9; [1])

O=C1N(CCCCCCOc2ccc(Cl)cc2)CCN1c1ccncc1 [Compound 24, 1-[6-(4-chlorophenoxy)hexyl]-3-(4-pyridyl)-2-imidazolidinone]
showed antiviral activity: antiviral activity against enteroviruses, in particular coxsackievirus A24 (coxsackievirus A24; [1]) | antiviral activity against enteroviruses, in particular enterovirus 71 (enterovirus 71; [1]) | antiviral activity against enteroviruses, in particular coxsackievirus A9 (coxsackievirus A9; [1])

O=C1N(CCCCCCOc2ccc(C(F)(F)F)cc2)CCN1c1cccnc1 [Compound 42, 1-(3-pyridyl)-3-(6-[4-(trifluoromethyl)phenoxy]hexyl)-2-imidazolidinone]
showed antiviral activity: antiviral activity against enteroviruses, in particular coxsackievirus A24 (coxsackievirus A24; [1]) | antiviral activity against enteroviruses, in particular enterovirus 71 (enterovirus 71; [1]) | antiviral activity against enteroviruses, in particular coxsackievirus A9 (coxsackievirus A9; [1])

O=C1N(CCCCCOc2ccc(Cl)cc2)CCN1c1ccncc1 [Compound 28, 1-[5-(4-chlorophenoxy)pentyl]-3-(4-pyridyl)-2-imidazolidinone]
showed antiviral activity: antiviral activity against enteroviruses, in particular coxsackievirus A24 (coxsackievirus A24; [1]) | antiviral activity against enteroviruses, in particular enterovirus 71 (enterovirus 71; [1]) | antiviral activity against enteroviruses, in particular coxsackievirus A9 (coxsackievirus A9; [1])

O=C1N(CCCCCOCCOc2ccc(Br)cc2)CCN1c1ccncc1 [Compound 47, 1-(5-[2-(4-bromophenoxy)ethoxy]pentyl)-3-(4-pyridyl)-2-imidazolidinone]
showed antiviral activity: antiviral activity against enteroviruses, in particular coxsackievirus A24 (coxsackievirus A24; [1]) | antiviral activity against enteroviruses, in particular enterovirus 71 (enterovirus 71; [1]) | antiviral activity against enteroviruses, in particular coxsackievirus A9 (coxsackievirus A9; [1])

O=C1N(CCCCOCCOc2ccc(Br)cc2)CCN1c1ccncc1 [Compound 34, 1-4-[2-(4-bromophenoxy)ethoxy]butyl-3-(4-pyridyl)-2-imidazolidinone]
showed antiviral activity: antiviral activity against enteroviruses, in particular coxsackievirus A24 (coxsackievirus A24; [1]) | antiviral activity against enteroviruses, in particular enterovirus 71 (enterovirus 71; [1]) | antiviral activity against enteroviruses, in particular coxsackievirus A9 (coxsackievirus A9; [1])

O=C1N(CCCCCCOc2ccc(C(F)(F)F)cc2)CCN1c1ccncc1 [Compound 1, 1-(4-pyridyl)-3-(6-[4-(trifluoromethyl)phenoxy]hexyl)-2-imidazolidinone]
showed antiviral activity: antiviral activity against enteroviruses, in particular coxsackievirus A24 (coxsackievirus A24; [1]) | antiviral activity against enteroviruses, in particular enterovirus 71 (enterovirus 71; [1]) | antiviral activity against enteroviruses, in particular coxsackievirus A9 (coxsackievirus A9; [1])

O=C1N(CCCCCOc2ccc(-c3ccc([N+](=O)[O-])cc3)cc2)CCN1c1ccncc1 [Compound 76, 1-[5-(4′-nitro-biphenyl-4-yloxy)pentyl]-3-pyridin-4-yl-imidazolidin-2-one]
showed antiviral activity: antiviral activity against enteroviruses, in particular coxsackievirus A24 (coxsackievirus A24; [1]) | antiviral activity against enteroviruses, in particular enterovirus 71 (enterovirus 71; [1]) | antiviral activity against enteroviruses, in particular coxsackievirus A9 (coxsackievirus A9; [1])

COc1ccc(-c2ccc(OCCCCCN3CCN(c4ccncc4)C3=O)cc2)cc1 [Compound 74, 1-[5-(4′-methoxy-biphenyl-4-yloxy)pentyl]-3-pyridin-4-yl-imidazolidin-2-one]
showed antiviral activity: antiviral activity against enteroviruses, in particular coxsackievirus A24 (coxsackievirus A24; [1]) | antiviral activity against enteroviruses, in particular enterovirus 71 (enterovirus 71; [1]) | antiviral activity against enteroviruses, in particular coxsackievirus A9 (coxsackievirus A9; [1])

CC1CN(CCCCCCOc2ccc(Cl)cc2)C(=O)N1c1ccncc1 (stereo not drawn) [Compound 21, 1-[6-(4-chlorophenoxy)hexyl]-4-methyl-3-(4-pyridyl)-2-imidazolidinone]
showed antiviral activity: antiviral activity against enteroviruses, in particular coxsackievirus A24 (coxsackievirus A24; [1]) | antiviral activity against enteroviruses, in particular enterovirus 71 (enterovirus 71; [1]) | antiviral activity against enteroviruses, in particular coxsackievirus A9 (coxsackievirus A9; [1])

O=C1N(CCCCCCCOc2ccc(Cl)cc2)CCN1c1cccnc1 [Compound 39, 1-[7-(4-chlorophenoxy)heptyl]-3-(3-pyridyl)-2-imidazolidinone]
showed antiviral activity: antiviral activity against enteroviruses, in particular coxsackievirus A24 (coxsackievirus A24; [1]) | antiviral activity against enteroviruses, in particular enterovirus 71 (enterovirus 71; [1]) | antiviral activity against enteroviruses, in particular coxsackievirus A9 (coxsackievirus A9; [1])
